Source: the kinase profiling compilation of Christmann-Franck et al. (2016)

Tests used:
Experiment in all cases: KINOMEscan competition binding
Conditions in all cases: compound 10.0 µM
MAP4K3 (human) = MAP4K3 (human) (UniProt Q8IVH8)
NTRK1 (human) = NTRK1 (human) (UniProt P04629)
MAP3K1 (human) = MAP3K1 (human) (UniProt Q13233)
CAMKK2 (human) = CAMKK2 (human) (UniProt Q96RR4)
STK36 (human) = STK36 (human) (UniProt Q9NRP7)
CPK1 (P.falciparum) = system: CPK1 (P.falciparum)
TSSK1B (human) = TSSK1B (human) (UniProt Q9BXA7)
CDK13 (human) = CDK13 (human) (UniProt Q14004)
RPS6KB1 (human) = RPS6KB1 (human) (UniProt P23443)
PRKAA1 (human) = PRKAA1 (human) (UniProt Q13131)
AURKC (human) = AURKC (human) (UniProt Q9UQB9)
SIK1 (human) = SIK1 (human) (UniProt P57059)
STK33 (human) = STK33 (human) (UniProt Q9BYT3)
BMPR1B (human) = BMPR1B (human) (UniProt O00238)
CDK4 CCND1 (human) = CDK4 CCND1 (human) (UniProt P11802+P24385)
MAP2K5 (human) = MAP2K5 (human) (UniProt Q13163)
Sequence of MAP2K5 (human) (Q13163 whole entry, looked up): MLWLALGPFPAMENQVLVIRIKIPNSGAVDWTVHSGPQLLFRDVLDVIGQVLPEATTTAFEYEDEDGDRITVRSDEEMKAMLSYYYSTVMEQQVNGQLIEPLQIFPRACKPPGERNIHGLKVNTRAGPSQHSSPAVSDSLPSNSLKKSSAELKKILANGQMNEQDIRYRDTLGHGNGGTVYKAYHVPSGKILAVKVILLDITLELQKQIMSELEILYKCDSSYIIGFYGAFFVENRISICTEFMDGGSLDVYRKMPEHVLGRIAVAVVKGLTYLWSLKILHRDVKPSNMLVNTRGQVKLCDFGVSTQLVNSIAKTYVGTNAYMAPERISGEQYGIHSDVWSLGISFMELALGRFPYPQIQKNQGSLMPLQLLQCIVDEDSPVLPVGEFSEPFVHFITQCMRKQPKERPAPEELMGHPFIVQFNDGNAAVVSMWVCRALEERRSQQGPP

MAPK14 (human) = MAPK14 (human) (UniProt Q16539)
MAPK10 (human) = MAPK10 (human) (UniProt P53779)
WEE2 (human) = WEE2 (human) (UniProt P0C1S8)
PLK2 (human) = PLK2 (human) (UniProt Q9NYY3)
EPHB1 (human) = EPHB1 (human) (UniProt P54762)
LIMK1 (human) = LIMK1 (human) (UniProt P53667)
MAPK7 (human) = MAPK7 (human) (UniProt Q13164)
Sequence of MAPK7 (human) (Q13164 whole entry, looked up): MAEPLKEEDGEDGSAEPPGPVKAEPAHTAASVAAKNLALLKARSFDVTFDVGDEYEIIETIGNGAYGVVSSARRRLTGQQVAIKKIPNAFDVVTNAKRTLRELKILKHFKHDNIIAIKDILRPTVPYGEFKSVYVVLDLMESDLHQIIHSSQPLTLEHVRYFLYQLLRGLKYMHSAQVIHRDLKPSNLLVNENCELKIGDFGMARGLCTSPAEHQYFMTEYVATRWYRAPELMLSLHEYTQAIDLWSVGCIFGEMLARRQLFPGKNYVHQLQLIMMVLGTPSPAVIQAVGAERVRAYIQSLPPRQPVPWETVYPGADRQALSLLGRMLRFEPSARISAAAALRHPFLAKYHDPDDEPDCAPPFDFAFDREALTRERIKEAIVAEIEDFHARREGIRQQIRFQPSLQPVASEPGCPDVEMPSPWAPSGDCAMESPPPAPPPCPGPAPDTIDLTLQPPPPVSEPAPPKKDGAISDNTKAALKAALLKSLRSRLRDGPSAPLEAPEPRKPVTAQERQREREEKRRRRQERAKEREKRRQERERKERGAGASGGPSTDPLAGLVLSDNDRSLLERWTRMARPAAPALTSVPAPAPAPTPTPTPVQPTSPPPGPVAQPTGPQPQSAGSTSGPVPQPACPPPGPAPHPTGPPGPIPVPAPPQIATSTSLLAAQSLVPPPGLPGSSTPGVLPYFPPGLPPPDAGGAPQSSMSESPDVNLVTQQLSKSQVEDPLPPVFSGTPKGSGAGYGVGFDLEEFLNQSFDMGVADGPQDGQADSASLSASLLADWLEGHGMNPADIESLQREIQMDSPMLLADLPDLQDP

FGFR3 (human) = FGFR3 (human) (UniProt P22607)
MUSK (human) = MUSK (human) (UniProt O15146)
HCK (human) = HCK (human) (UniProt P08631)
RIOK1 (human) = RIOK1 (human) (UniProt Q9BRS2)
STK10 (human) = STK10 (human) (UniProt O94804)
PI4KB (human) = PI4KB (human) (UniProt Q9UBF8)
Sequence of PI4KB (human) (Q9UBF8 whole entry, looked up): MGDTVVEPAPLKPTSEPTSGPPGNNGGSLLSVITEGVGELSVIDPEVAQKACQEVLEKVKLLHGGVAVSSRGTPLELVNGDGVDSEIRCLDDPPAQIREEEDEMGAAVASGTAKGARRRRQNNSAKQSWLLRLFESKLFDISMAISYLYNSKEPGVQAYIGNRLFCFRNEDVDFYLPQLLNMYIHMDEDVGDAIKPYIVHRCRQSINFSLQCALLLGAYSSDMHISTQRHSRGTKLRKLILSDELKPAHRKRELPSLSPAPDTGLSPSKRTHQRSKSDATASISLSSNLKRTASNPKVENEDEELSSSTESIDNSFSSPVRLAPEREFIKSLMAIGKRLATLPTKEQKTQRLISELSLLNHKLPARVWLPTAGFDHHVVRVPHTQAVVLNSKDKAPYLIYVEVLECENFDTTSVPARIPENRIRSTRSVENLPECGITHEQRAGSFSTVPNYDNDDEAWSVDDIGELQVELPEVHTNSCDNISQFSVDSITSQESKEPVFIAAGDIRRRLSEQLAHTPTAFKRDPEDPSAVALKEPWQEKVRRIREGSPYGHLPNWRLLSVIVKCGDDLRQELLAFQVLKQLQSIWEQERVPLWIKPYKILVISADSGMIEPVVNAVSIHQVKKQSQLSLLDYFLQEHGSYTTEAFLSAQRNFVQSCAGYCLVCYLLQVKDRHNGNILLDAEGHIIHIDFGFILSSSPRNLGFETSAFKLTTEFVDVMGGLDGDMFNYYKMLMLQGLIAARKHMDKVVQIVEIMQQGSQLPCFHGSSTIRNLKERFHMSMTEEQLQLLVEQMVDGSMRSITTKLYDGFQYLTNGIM

MAPK1 (human) = MAPK1 (human) (UniProt P28482)
DYRK1B (human) = DYRK1B (human) (UniProt Q9Y463)
TEC (human) = TEC (human) (UniProt P42680)
STK32C (human) = STK32C (human) (UniProt Q86UX6)
EPHB2 (human) = EPHB2 (human) (UniProt P29323)
Sequence of EPHB2 (human) (P29323 whole entry, looked up): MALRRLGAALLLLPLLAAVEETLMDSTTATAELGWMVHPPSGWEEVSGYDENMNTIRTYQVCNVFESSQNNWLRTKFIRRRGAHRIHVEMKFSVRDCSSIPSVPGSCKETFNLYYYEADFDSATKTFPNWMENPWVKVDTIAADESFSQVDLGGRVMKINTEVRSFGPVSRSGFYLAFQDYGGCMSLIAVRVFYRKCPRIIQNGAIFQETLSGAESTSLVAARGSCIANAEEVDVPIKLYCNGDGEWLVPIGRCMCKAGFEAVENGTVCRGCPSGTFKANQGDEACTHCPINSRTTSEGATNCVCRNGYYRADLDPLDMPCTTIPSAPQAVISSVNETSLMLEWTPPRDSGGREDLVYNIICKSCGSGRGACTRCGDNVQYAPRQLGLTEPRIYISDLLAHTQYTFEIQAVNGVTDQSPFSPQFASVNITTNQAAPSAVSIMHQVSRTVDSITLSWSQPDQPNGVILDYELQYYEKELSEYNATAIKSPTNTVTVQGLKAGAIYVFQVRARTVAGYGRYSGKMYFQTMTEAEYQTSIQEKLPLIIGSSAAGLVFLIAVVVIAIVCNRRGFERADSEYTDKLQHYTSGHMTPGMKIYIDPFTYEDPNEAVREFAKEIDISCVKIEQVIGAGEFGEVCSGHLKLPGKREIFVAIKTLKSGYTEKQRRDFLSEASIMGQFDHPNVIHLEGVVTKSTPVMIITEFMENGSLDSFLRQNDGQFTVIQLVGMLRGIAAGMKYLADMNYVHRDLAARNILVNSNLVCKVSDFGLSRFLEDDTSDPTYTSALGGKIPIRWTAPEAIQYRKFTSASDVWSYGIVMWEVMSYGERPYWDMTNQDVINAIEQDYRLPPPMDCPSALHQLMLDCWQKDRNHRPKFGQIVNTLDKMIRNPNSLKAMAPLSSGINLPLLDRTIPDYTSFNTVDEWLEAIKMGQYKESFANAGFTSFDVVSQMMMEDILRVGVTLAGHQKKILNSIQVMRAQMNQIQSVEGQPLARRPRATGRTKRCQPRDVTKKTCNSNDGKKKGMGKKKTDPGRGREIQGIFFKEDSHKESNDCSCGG

MAP4K4 (human) = MAP4K4 (human) (UniProt O95819)
CDKL2 (human) = CDKL2 (human) (UniProt Q92772)
Sequence of CDKL2 (human) (Q92772 whole entry, looked up): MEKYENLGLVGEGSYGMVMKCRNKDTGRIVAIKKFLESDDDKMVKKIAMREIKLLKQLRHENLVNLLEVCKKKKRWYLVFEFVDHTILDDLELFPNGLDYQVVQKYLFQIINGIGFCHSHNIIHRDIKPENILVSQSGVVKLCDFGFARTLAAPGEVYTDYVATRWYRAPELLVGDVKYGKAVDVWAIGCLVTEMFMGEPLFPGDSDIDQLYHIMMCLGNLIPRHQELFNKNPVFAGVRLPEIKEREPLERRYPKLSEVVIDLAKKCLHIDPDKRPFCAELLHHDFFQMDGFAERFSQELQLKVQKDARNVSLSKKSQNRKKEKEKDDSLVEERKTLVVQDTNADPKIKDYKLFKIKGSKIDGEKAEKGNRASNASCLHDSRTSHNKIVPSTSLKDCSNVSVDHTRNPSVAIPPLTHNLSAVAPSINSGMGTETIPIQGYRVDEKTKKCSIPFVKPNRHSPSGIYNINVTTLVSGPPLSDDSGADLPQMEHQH

TNIK (human) = TNIK (human) (UniProt Q9UKE5)
LYN (human) = LYN (human) (UniProt P07948)
Sequence of LYN (human) (P07948 whole entry, looked up): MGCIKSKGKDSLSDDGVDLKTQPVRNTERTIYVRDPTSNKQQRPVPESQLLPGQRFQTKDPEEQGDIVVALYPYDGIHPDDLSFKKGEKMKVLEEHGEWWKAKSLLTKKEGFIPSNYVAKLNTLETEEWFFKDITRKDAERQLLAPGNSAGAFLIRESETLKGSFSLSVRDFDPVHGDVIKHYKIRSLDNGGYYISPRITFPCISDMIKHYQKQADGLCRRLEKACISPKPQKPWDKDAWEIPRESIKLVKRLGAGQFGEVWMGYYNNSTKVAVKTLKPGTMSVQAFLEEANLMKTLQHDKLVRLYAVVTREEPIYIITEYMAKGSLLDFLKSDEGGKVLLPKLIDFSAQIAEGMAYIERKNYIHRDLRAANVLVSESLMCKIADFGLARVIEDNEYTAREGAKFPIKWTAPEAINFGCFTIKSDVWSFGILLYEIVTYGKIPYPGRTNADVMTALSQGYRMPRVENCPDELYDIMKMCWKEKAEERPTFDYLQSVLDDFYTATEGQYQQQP

NEK9 (human) = NEK9 (human) (UniProt Q8TD19)
MYO3A (human) = MYO3A (human) (UniProt Q8NEV4)
MTOR (human) = MTOR (human) (UniProt P42345)

Sequence of NTRK1 (human) (P04629 whole entry, looked up): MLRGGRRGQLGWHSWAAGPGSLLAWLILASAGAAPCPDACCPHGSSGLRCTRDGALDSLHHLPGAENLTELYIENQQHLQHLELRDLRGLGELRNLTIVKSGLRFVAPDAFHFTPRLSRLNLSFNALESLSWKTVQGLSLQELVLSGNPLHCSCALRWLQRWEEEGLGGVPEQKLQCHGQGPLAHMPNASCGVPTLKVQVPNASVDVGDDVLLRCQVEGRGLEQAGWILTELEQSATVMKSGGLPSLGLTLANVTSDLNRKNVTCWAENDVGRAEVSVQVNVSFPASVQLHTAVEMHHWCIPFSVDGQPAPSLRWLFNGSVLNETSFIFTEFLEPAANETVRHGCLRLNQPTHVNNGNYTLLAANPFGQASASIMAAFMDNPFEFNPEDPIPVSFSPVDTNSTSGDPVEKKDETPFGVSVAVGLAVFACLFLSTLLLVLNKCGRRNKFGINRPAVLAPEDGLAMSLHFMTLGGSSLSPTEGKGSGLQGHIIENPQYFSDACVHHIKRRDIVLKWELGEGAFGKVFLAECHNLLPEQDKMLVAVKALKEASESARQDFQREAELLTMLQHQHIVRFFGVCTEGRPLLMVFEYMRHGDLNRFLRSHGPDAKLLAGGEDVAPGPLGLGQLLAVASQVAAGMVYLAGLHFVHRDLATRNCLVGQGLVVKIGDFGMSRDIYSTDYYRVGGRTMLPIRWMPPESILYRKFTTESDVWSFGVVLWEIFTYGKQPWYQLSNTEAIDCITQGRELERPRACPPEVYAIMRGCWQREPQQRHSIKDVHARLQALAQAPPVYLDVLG

**Q.** What does the source list for `COc1cc(C(=O)N2CCC(N3CCN(C)CC3)CC2)ccc1Nc1ncc2c(n1)N(C)c1ccccc1C(=O)N2C`?
**A.** kinase still bound, per cent of control (MAP4K3 (human)): 71%; kinase still bound, per cent of control (NTRK1 (human)): 69%; kinase still bound, per cent of control (MAP3K1 (human)): 95%; kinase still bound, per cent of control (CAMKK2 (human)): 31%; kinase still bound, per cent of control (STK36 (human)): 97%; kinase still bound, per cent of control (CPK1 (P.falciparum)): 100%; kinase still bound, per cent of control (TSSK1B (human)): 60%; residual activity (CDK13 (human)): 100%; kinase still bound, per cent of control (RPS6KB1 (human)): 100%; kinase still bound, per cent of control (PRKAA1 (human)): 51%; kinase still bound, per cent of control (AURKC (human)): 50%; kinase still bound, per cent of control (SIK1 (human)): 77%; kinase still bound, per cent of control (STK33 (human)): 10%; kinase still bound, per cent of control (BMPR1B (human)): 76%; residual activity (CDK4 CCND1 (human)): 100%; kinase still bound, per cent of control (MAP2K5 (human)): 85%; kinase still bound, per cent of control (MAPK14 (human)): 87%; kinase still bound, per cent of control (MAPK10 (human)): 77%; kinase still bound, per cent of control (WEE2 (human)): 100%; kinase still bound, per cent of control (PLK2 (human)): 100%; kinase still bound, per cent of control (EPHB1 (human)): 98%; kinase still bound, per cent of control (LIMK1 (human)): 95%; kinase still bound, per cent of control (MAPK7 (human)): 0.05%; kinase still bound, per cent of control (FGFR3 (human)): 80%; kinase still bound, per cent of control (MUSK (human)): 99%; kinase still bound, per cent of control (HCK (human)): 100%; kinase still bound, per cent of control (RIOK1 (human)): 100%; kinase still bound, per cent of control (STK10 (human)): 100%; kinase still bound, per cent of control (PI4KB (human)): 95%; kinase still bound, per cent of control (MAPK1 (human)): 85%; kinase still bound, per cent of control (DYRK1B (human)): 94%; kinase still bound, per cent of control (TEC (human)): 100%; kinase still bound, per cent of control (STK32C (human)): 100%; kinase still bound, per cent of control (EPHB2 (human)): 100%; kinase still bound, per cent of control (MAP4K4 (human)): 85%; residual activity (CDKL2 (human)): 100%; kinase still bound, per cent of control (TNIK (human)): 100%; kinase still bound, per cent of control (LYN (human)): 100%; kinase still bound, per cent of control (NEK9 (human)): 100%; kinase still bound, per cent of control (MYO3A (human)): 94%; kinase still bound, per cent of control (MTOR (human)): 97%
